Results as given in patent US4617189A, “Use of selenium-containing compounds for negating the toxic effects of platinum compounds used in chemotherapy, and a novel selenium-containing platinum compound and use thereof as an anti-cancer medicine” (priority 1985, dated 1986).

Legend:
[1] = test system: Cisplatin induced nephrotoxicity; assay: Platinum toxicity negating effect: blood urea nitrogen (BUN) determination in BDF1 mice given Cisplatin; type: in vivo, mouse (male BDF1); settings: for BUN (≥30) on the fourth day / BUN (≥30) on the eleventh day: mice with BUN ≥30 / mice
Experimental: BUN of the mice which have been administered a platinum complex increases due to the platinum poisoning in the kidney. […] The method of negating platinum toxicity of the present invention will be illustrated in more detail by way of Examples later.
Sodium selenite was administered to the peritoneal cavities of the mice at a dosage of 6.3 mg/kg. […] BUN of the mice was determined on the fourth day from the date of the administration. […] BUN of these control groups was also determined.
BUN of the mice was dertermined on the fourth day from the date of administration and on the eleventh day from the date of the administration. […] BUN of these control groups was also determined.
Our studies were carried out in BDF1 male mice weighing approximately 25 grams. All solutions were freshly were daily and given by the intraperitoneal route.
The BUN values were determined on the fourth day after the administration of cisplatinol.

[2] = test system: cadmium induced testicular damage; settings: Kar and co-workers, 1969; cited from earlier work
[3] = test system: nephrotoxic effects of Cisplatin; settings: 750 mg/kg intraperitoneally or 100 mg/kg intravenously; cited from earlier work
[4] = Table 3, sodium selenite 1 mg/kg 2 hours before Cisplatin 14 mg/kg
[5] = Table 3, sodium selenite 2 mg/kg 2 hours before Cisplatin 14 mg/kg
[6] = Table 3, sodium selenite 4 mg/kg 2 hours before Cisplatin 14 mg/kg
[7] = Table 3, sodium selenite 6 mg/kg 2 hours before Cisplatin 14 mg/kg
[8] = Table 3, sodium selenite 8 mg/kg 2 hours before Cisplatin 14 mg/kg

O=[Se](O)O [Sodium selenite]
number of dead mice ([1]; Table 1, fourth day, sodium selenite 6.3 mg/kg 2 hours before Cisplatin 14 mg/kg): 2 | BUN (≥30) on the fourth day ([1]; Table 1, sodium selenite 6.3 mg/kg 1 hour after Cisplatin 14 mg/kg): 5/5 | BUN (≥30) on the fourth day ([1]; Table 1, sodium selenite 6.3 mg/kg 2 hours before Cisplatin 14 mg/kg): 1/3 | BUN (≥30) on the fourth day ([1]; Table 1, sodium selenite 6.3 mg/kg 4 hours before Cisplatin 14 mg/kg): 4/5 | BUN (≥30) on the fourth day ([1]; Table 1, sodium selenite 6.3 mg/kg i.p. alone, no Cisplatin): 0/5 | BUN (≥30) on the fourth day ([1]; Table 1, sodium selenite 6.3 mg/kg simultaneously with Cisplatin 14 mg/kg): 2/5 | number of dead mice ([1]; Table 2, fourth day, sodium selenite 6.3 mg/kg 3 hours before Cisplatin 14 mg/kg): 1 | number of dead mice ([1]; Table 2, fourth day, sodium selenite 6.3 mg/kg 4 hours before Cisplatin 14 mg/kg): 1 | number of dead mice ([1]; Table 2, fourth day, sodium selenite 6.3 mg/kg 6 hours before Cisplatin 14 mg/kg): 1 | number of dead mice ([1]; Table 2, fourth day, sodium selenite 6.3 mg/kg simultaneously with Cisplatin 14 mg/kg): 1 | BUN (≥30) on the fourth day ([1]; Table 2, sodium selenite 6.3 mg/kg 1 hour before Cisplatin 14 mg/kg): 3/5 | BUN (≥30) on the fourth day ([1]; Table 2, sodium selenite 6.3 mg/kg 2 hours before Cisplatin 14 mg/kg): 1/5 | BUN (≥30) on the fourth day ([1]; Table 2, sodium selenite 6.3 mg/kg 3 hours before Cisplatin 14 mg/kg): 1/4 | BUN (≥30) on the fourth day ([1]; Table 2, sodium selenite 6.3 mg/kg 4 hours before Cisplatin 14 mg/kg): 2/4 | BUN (≥30) on the fourth day ([1]; Table 2, sodium selenite 6.3 mg/kg 6 hours before Cisplatin 14 mg/kg): 2/4 | BUN (≥30) on the fourth day ([1]; Table 2, sodium selenite 6.3 mg/kg simultaneously with Cisplatin 14 mg/kg): 2/4 | number of dead mice ([1]; Table 3, eleventh day, sodium selenite 2 mg/kg 2 hours before Cisplatin 14 mg/kg): 1 | number of dead mice ([1]; Table 3, eleventh day, sodium selenite 4 mg/kg 2 hours before Cisplatin 14 mg/kg): 2 | number of dead mice ([1]; Table 3, eleventh day, sodium selenite 6 mg/kg 2 hours before Cisplatin 14 mg/kg): 1 | number of dead mice ([1]; Table 3, eleventh day, sodium selenite 8 mg/kg 2 hours before Cisplatin 14 mg/kg): 1 | number of dead mice ([1]; Table 3, fourth day, sodium selenite 4 mg/kg 2 hours before Cisplatin 14 mg/kg): 1 | number of dead mice ([1]; Table 3, fourth day, sodium selenite 8 mg/kg 2 hours before Cisplatin 14 mg/kg): 1 | BUN (≥30) on the eleventh day [1, 4]: 1/5 | BUN (≥30) on the fourth day [1, 4]: 3/5 | BUN (≥30) on the eleventh day [1, 5]: 0/4 | BUN (≥30) on the fourth day [1, 5]: 1/5 | BUN (≥30) on the eleventh day [1, 6]: 0/3 | BUN (≥30) on the fourth day [1, 6]: 1/4 | BUN (≥30) on the eleventh day [1, 7]: 0/4 | BUN (≥30) on the fourth day [1, 7]: 1/5 | BUN (≥30) on the eleventh day [1, 8]: 0/4 | BUN (≥30) on the fourth day [1, 8]: 1/4

[Se] [selenium]
cadmium induced testicular damage [2]: prevents

CCN(CC)C(=S)[S-].[Na+] [sodium diethyldithiocarbamate]
nephrotoxic effects of Cisplatin in female rats [3]: effectively inhibited
